Source: the supplement of paper PMC10307832

What was measured:
Test in all cases: relative viability (nuclei count vs DMSO), 5 days (fraction); higher = more cells survive
NCI-H838 = system: NCI-H838
Summary of the method: (§1)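 Cells from lung cancer lines were seeded into 1536-well plates and, one day later, dosed by pin tool. Treatments were either a single drug or a fixed dose of an anchor drug with five library-drug doses (not always all listed) in √10 steps. After 5 days, nuclei were stained in a one-step fixation (final 0.05% Triton X-100, 1% formaldehyde, 1 ug/ml Hoechst) and counted on 4× images, and relative viability is the treated-to-vehicle nuclei ratio, as the median of duplicate plates.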

LK-2 = system: LK-2
Summary of the method: as §1

HCC-366 = system: HCC-366
Summary of the method: as §1

NCI-H2342 = system: NCI-H2342
Summary of the method: as §1

NCI-H522 = system: NCI-H522
Summary of the method: as §1

LXF-289 = system: LXF-289
Summary of the method: as §1

HCC-827 = system: HCC-827
Summary of the method: as §1

NCI-H1975 = system: NCI-H1975
Summary of the method: as §1

PC-14 = system: PC-14
Summary of the method: as §1

HOP-62 = system: HOP-62
Summary of the method: as §1

NCI-H2085 = system: NCI-H2085
Summary of the method: as §1

LU99A = system: LU99A
Summary of the method: as §1

HARA = system: HARA
Summary of the method: as §1

NCI-H1944 = system: NCI-H1944
Summary of the method: as §1

SW 900 = system: SW 900
Summary of the method: as §1

HCC-44 = system: HCC-44
Summary of the method: as §1

HCC-15 = system: HCC-15
Summary of the method: as §1

NCI-H647 = system: NCI-H647
Summary of the method: as §1

CAL-12T = system: CAL-12T
Summary of the method: as §1

LC-2-ad = system: LC-2-ad
Summary of the method: as §1

COR-L23 = system: COR-L23
Summary of the method: as §1

COR-L 105 = system: COR-L 105
Summary of the method: as §1

NCI-H2023 = system: NCI-H2023
Summary of the method: as §1

Oc1nc(-c2ccc(C(F)(F)F)cc2)nc2c1CSCC2 [XAV939] + NC(=O)Nc1cc(-c2cccc(F)c2)sc1C(=O)N[C@H]1CCCNC1 [AZD7762] (partner 0.2 µM)
relative viability (NCI-H838; first compound 0.08 µM): 0.93
relative viability (NCI-H838; first compound 0.253 µM): 0.842
relative viability (NCI-H838; first compound 0.8 µM): 0.923
relative viability (NCI-H838; first compound 2.53 µM): 0.799
relative viability (LK-2; first compound 0.08 µM): 0.375
relative viability (LK-2; first compound 0.253 µM): 0.429
relative viability (LK-2; first compound 0.8 µM): 0.344
relative viability (LK-2; first compound 2.53 µM): 0.238
relative viability (HCC-366; first compound 0.08 µM): 0.423
relative viability (HCC-366; first compound 0.253 µM): 0.211
relative viability (HCC-366; first compound 0.8 µM): 0.188
relative viability (HCC-366; first compound 2.53 µM): 0.132
relative viability (NCI-H2342; first compound 0.08 µM): 0.425
relative viability (NCI-H2342; first compound 0.253 µM): 0.443
relative viability (NCI-H2342; first compound 0.8 µM): 0.401
relative viability (NCI-H2342; first compound 2.53 µM): 0.345
relative viability (NCI-H522; first compound 0.08 µM): 0.914
relative viability (NCI-H522; first compound 0.253 µM): 0.797
relative viability (NCI-H522; first compound 0.8 µM): 0.825
relative viability (NCI-H522; first compound 2.53 µM): 0.819
relative viability (LXF-289; first compound 0.08 µM): 1.16
relative viability (LXF-289; first compound 0.253 µM): 1.04
relative viability (LXF-289; first compound 0.8 µM): 1.1
relative viability (LXF-289; first compound 2.53 µM): 1.21
relative viability (HCC-827; first compound 0.08 µM): 0.228
relative viability (HCC-827; first compound 0.253 µM): 0.195
relative viability (HCC-827; first compound 0.8 µM): 0.213
relative viability (HCC-827; first compound 2.53 µM): 0.177
relative viability (NCI-H1975; first compound 0.08 µM): 0.684
relative viability (NCI-H1975; first compound 0.253 µM): 0.534
relative viability (NCI-H1975; first compound 0.8 µM): 0.504
relative viability (NCI-H1975; first compound 2.53 µM): 0.516
relative viability (PC-14; first compound 0.08 µM): 0.352
relative viability (PC-14; first compound 0.253 µM): 0.333
relative viability (PC-14; first compound 0.8 µM): 0.304
relative viability (PC-14; first compound 2.53 µM): 0.345
relative viability (HOP-62; first compound 0.08 µM): 0.827
relative viability (HOP-62; first compound 0.253 µM): 0.503
relative viability (HOP-62; first compound 0.8 µM): 0.613
relative viability (HOP-62; first compound 2.53 µM): 0.323
relative viability (NCI-H2085; first compound 0.08 µM): 1.07
relative viability (NCI-H2085; first compound 0.253 µM): 0.876
relative viability (NCI-H2085; first compound 0.8 µM): 0.896
relative viability (NCI-H2085; first compound 2.53 µM): 0.881
relative viability (LU99A; first compound 0.08 µM): 0.495
relative viability (LU99A; first compound 0.253 µM): 0.394
relative viability (LU99A; first compound 0.8 µM): 0.339
relative viability (LU99A; first compound 2.53 µM): 0.32
relative viability (HARA; first compound 0.08 µM): 0.671
relative viability (HARA; first compound 0.253 µM): 0.305
relative viability (HARA; first compound 0.8 µM): 0.271
relative viability (HARA; first compound 2.53 µM): 0.294
relative viability (NCI-H1944; first compound 0.08 µM): 0.589
relative viability (NCI-H1944; first compound 0.253 µM): 0.539
relative viability (NCI-H1944; first compound 0.8 µM): 0.477
relative viability (NCI-H1944; first compound 2.53 µM): 0.382
relative viability (SW 900; first compound 0.253 µM): 0.616
relative viability (SW 900; first compound 0.8 µM): 0.599
relative viability (SW 900; first compound 2.53 µM): 0.501
relative viability (HCC-44; first compound 0.08 µM): 0.899
relative viability (HCC-44; first compound 0.253 µM): 0.89
relative viability (HCC-44; first compound 0.8 µM): 0.953
relative viability (HCC-44; first compound 2.53 µM): 0.872
relative viability (HCC-15; first compound 0.08 µM): 1.31
relative viability (HCC-15; first compound 0.253 µM): 1.15
relative viability (HCC-15; first compound 0.8 µM): 1.21
relative viability (HCC-15; first compound 2.53 µM): 1.08
relative viability (NCI-H647; first compound 0.08 µM): 0.489
relative viability (NCI-H647; first compound 0.253 µM): 0.351
relative viability (NCI-H647; first compound 0.8 µM): 0.319
relative viability (NCI-H647; first compound 2.53 µM): 0.412
relative viability (CAL-12T; first compound 0.08 µM): 0.654
relative viability (CAL-12T; first compound 0.253 µM): 0.595
relative viability (CAL-12T; first compound 0.8 µM): 0.609
relative viability (CAL-12T; first compound 2.53 µM): 0.507
relative viability (LC-2-ad; first compound 0.08 µM): 0.865
relative viability (LC-2-ad; first compound 0.253 µM): 0.711
relative viability (LC-2-ad; first compound 0.8 µM): 0.806
relative viability (LC-2-ad; first compound 2.53 µM): 0.724

Oc1nc(-c2ccc(C(F)(F)F)cc2)nc2c1CSCC2 [XAV939] + Nc1ncn([C@H]2C[C@H](O)[C@@H](CO)O2)c(=O)n1 [Decitabine] (partner 2 µM)
relative viability (NCI-H838; first compound 0.08 µM): 0.488
relative viability (NCI-H838; first compound 0.253 µM): 0.442
relative viability (NCI-H838; first compound 0.8 µM): 0.458
relative viability (NCI-H838; first compound 2.53 µM): 0.384
relative viability (LK-2; first compound 0.08 µM): 0.263
relative viability (LK-2; first compound 0.253 µM): 0.322
relative viability (LK-2; first compound 0.8 µM): 0.318
relative viability (LK-2; first compound 2.53 µM): 0.189
relative viability (HCC-366; first compound 0.08 µM): 0.329
relative viability (HCC-366; first compound 0.253 µM): 0.299
relative viability (HCC-366; first compound 0.8 µM): 0.326
relative viability (HCC-366; first compound 2.53 µM): 0.31
relative viability (NCI-H2342; first compound 0.08 µM): 0.832
relative viability (NCI-H2342; first compound 0.253 µM): 0.669
relative viability (NCI-H2342; first compound 0.8 µM): 0.72
relative viability (NCI-H2342; first compound 2.53 µM): 0.427
relative viability (NCI-H522; first compound 0.08 µM): 0.629
relative viability (NCI-H522; first compound 0.253 µM): 0.576
relative viability (NCI-H522; first compound 0.8 µM): 0.723
relative viability (NCI-H522; first compound 2.53 µM): 0.607
relative viability (LXF-289; first compound 0.08 µM): 0.388
relative viability (LXF-289; first compound 0.253 µM): 0.38
relative viability (LXF-289; first compound 0.8 µM): 0.416
relative viability (LXF-289; first compound 2.53 µM): 0.345
relative viability (COR-L23; first compound 0.08 µM): 0.444
relative viability (COR-L23; first compound 0.253 µM): 0.414
relative viability (COR-L23; first compound 0.8 µM): 0.424
relative viability (COR-L23; first compound 2.53 µM): 0.378
relative viability (HCC-827; first compound 0.08 µM): 0.327
relative viability (HCC-827; first compound 0.253 µM): 0.269
relative viability (HCC-827; first compound 0.8 µM): 0.321
relative viability (HCC-827; first compound 2.53 µM): 0.254
relative viability (NCI-H1975; first compound 0.08 µM): 0.382
relative viability (NCI-H1975; first compound 0.253 µM): 0.357
relative viability (NCI-H1975; first compound 0.8 µM): 0.379
relative viability (NCI-H1975; first compound 2.53 µM): 0.354
relative viability (PC-14; first compound 0.08 µM): 0.203
relative viability (PC-14; first compound 0.253 µM): 0.224
relative viability (PC-14; first compound 0.8 µM): 0.165
relative viability (PC-14; first compound 2.53 µM): 0.18
relative viability (HOP-62; first compound 0.08 µM): 0.226
relative viability (HOP-62; first compound 0.253 µM): 0.193
relative viability (HOP-62; first compound 0.8 µM): 0.223
relative viability (HOP-62; first compound 2.53 µM): 0.157
relative viability (NCI-H2085; first compound 0.08 µM): 0.536
relative viability (NCI-H2085; first compound 0.253 µM): 0.494
relative viability (NCI-H2085; first compound 0.8 µM): 0.537
relative viability (NCI-H2085; first compound 2.53 µM): 0.462
relative viability (LU99A; first compound 0.08 µM): 0.986
relative viability (LU99A; first compound 0.253 µM): 0.725
relative viability (LU99A; first compound 0.8 µM): 0.807
relative viability (LU99A; first compound 2.53 µM): 0.921
relative viability (COR-L 105; first compound 0.08 µM): 0.719
relative viability (COR-L 105; first compound 0.253 µM): 0.551
relative viability (COR-L 105; first compound 0.8 µM): 0.587
relative viability (COR-L 105; first compound 2.53 µM): 0.563
relative viability (HARA; first compound 0.08 µM): 0.552
relative viability (HARA; first compound 0.253 µM): 0.51
relative viability (HARA; first compound 0.8 µM): 0.626
relative viability (HARA; first compound 2.53 µM): 0.379
relative viability (NCI-H2023; first compound 0.08 µM): 0.207
relative viability (NCI-H2023; first compound 0.253 µM): 0.232
relative viability (NCI-H2023; first compound 0.8 µM): 0.212
relative viability (NCI-H2023; first compound 2.53 µM): 0.228
relative viability (NCI-H1944; first compound 0.08 µM): 0.424
relative viability (NCI-H1944; first compound 0.253 µM): 0.439
relative viability (NCI-H1944; first compound 0.8 µM): 0.44
relative viability (NCI-H1944; first compound 2.53 µM): 0.403
relative viability (SW 900; first compound 0.253 µM): 0.454
relative viability (SW 900; first compound 0.8 µM): 0.438
relative viability (SW 900; first compound 2.53 µM): 0.428
relative viability (HCC-44; first compound 0.08 µM): 0.969
relative viability (HCC-44; first compound 0.253 µM): 0.861
relative viability (HCC-44; first compound 0.8 µM): 0.928
relative viability (HCC-44; first compound 2.53 µM): 0.878
relative viability (HCC-15; first compound 0.08 µM): 0.702
relative viability (HCC-15; first compound 0.253 µM): 0.656
relative viability (HCC-15; first compound 0.8 µM): 0.656
relative viability (HCC-15; first compound 2.53 µM): 0.635
relative viability (NCI-H647; first compound 0.08 µM): 0.393
relative viability (NCI-H647; first compound 0.253 µM): 0.26
relative viability (NCI-H647; first compound 0.8 µM): 0.283
relative viability (NCI-H647; first compound 2.53 µM): 0.279
relative viability (LC-2-ad; first compound 0.08 µM): 0.786
relative viability (LC-2-ad; first compound 0.253 µM): 0.719
relative viability (LC-2-ad; first compound 0.8 µM): 0.872
relative viability (LC-2-ad; first compound 2.53 µM): 0.733
